Values joined by “and” are separate entries in the source; they are usually repeats but may differ in a detail not shown here. Equal values may be shown once. Toxic doses and inconclusive results are not listed.
Tested on: L1210 leukemia ip in BDF1 mice, survival T/C
Assay: NCI In Vivo Anticancer Drug Screen. Data for tumor model L1210 Leukemia (intraperitoneal) in B6D2F1 (BDF1) mice
Conditions: endpoint: mean survival time, higher = longer survival
How it was run: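 In this screen, tumor-bearing mice given compound are compared to those given vehicle, and their survival values are reported as a treated-to-control quotient.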

[1] = dose: 100.0 mg/kg/injection, schedule: Q04DX003 (ip), vehicle: Klucel (hydroxypropylcellulose) (HPC)
[2] = dose: 200.0 mg/kg/injection, schedule: Q04DX003 (ip), vehicle: Klucel (hydroxypropylcellulose) (HPC)
[3] = dose: 400.0 mg/kg/injection, schedule: Q04DX003 (ip), vehicle: Klucel (hydroxypropylcellulose) (HPC)
[4] = dose: 100.0 mg/kg/injection, schedule: Q04DX002 (ip), vehicle: gum acacia
[5] = dose: 200.0 mg/kg/injection, schedule: Q04DX002 (ip), vehicle: gum acacia
[6] = dose: 100.0 mg/kg/injection, schedule: Q01DX001 (ip), vehicle: saline
[7] = dose: 100.0 mg/kg/injection, schedule: Q01DX009 (ip), vehicle: Klucel (hydroxypropylcellulose) (HPC)
[8] = dose: 200.0 mg/kg/injection, schedule: Q01DX009 (ip), vehicle: Klucel (hydroxypropylcellulose) (HPC)
[9] = dose: 400.0 mg/kg/injection, schedule: Q01DX009 (ip), vehicle: Klucel (hydroxypropylcellulose) (HPC)
[10] = dose: 100.0 mg/kg/injection, schedule: Q01DX009 (ip), vehicle: saline with Tween-80
[11] = dose: 100.0 mg/kg/injection, schedule: Q04DX003 (ip), vehicle: saline with Tween-80
[12] = dose: 200.0 mg/kg/injection, schedule: Q01DX009 (ip), vehicle: saline with Tween-80
[13] = dose: 200.0 mg/kg/injection, schedule: Q04DX003 (ip), vehicle: saline with Tween-80
[14] = dose: 400.0 mg/kg/injection, schedule: Q01DX009 (ip), vehicle: saline with Tween-80
[15] = dose: 400.0 mg/kg/injection, schedule: Q04DX003 (ip), vehicle: saline with Tween-80
[16] = dose: 100.0 mg/kg/injection, schedule: Q01DX001 (ip), vehicle: carboxymethylcellulose (CMC)
[17] = dose: 200.0 mg/kg/injection, schedule: Q01DX001 (ip), vehicle: carboxymethylcellulose (CMC)
[18] = dose: 400.0 mg/kg/injection, schedule: Q01DX001 (ip), vehicle: carboxymethylcellulose (CMC)

In the case of `COc1cc2c(cc1OC(C)=O)C(=O)CCCC2`, the T/C [1] is reported as 91 % of control, the T/C [2] is reported as 97 % of control and the T/C [3] is reported as 96 % of control.
With `O=S1(=O)CC(N2CCCCC2)C1CN1CCCCC1` (centres undefined) the T/C (dose: 75.0 mg/kg/injection, schedule: Q01DX001 (ip), vehicle: saline) was 97 % of control and the T/C (dose: 150.0 mg/kg/injection, schedule: Q01DX001 (ip), vehicle: saline) was 89 % of control.
With `COc1cc(C)c(C)cc1/C(C)=C(/C)C(=O)O` (tested in a mixture with another compound) the T/C (dose: 100.0 mg/kg/injection, schedule: Q01DX001 (ip), vehicle: saline with Tween-80) was 100 % of control, the T/C (dose: 200.0 mg/kg/injection, schedule: Q01DX001 (ip), vehicle: saline with Tween-80) was 100 % of control and the T/C (dose: 400.0 mg/kg/injection, schedule: Q01DX001 (ip), vehicle: saline with Tween-80) was 103 % of control.
In the case of `COc1cc(NC=O)c2ncccc2c1`, the T/C (dose: 50.0 mg/kg/injection, schedule: Q04DX003 (ip), vehicle: Klucel (hydroxypropylcellulose) (HPC)) is reported as 97 % of control, the T/C [1] is reported as 100 % of control and the T/C [2] is reported as 88 % of control.
With `c1ccc(C(c2ccccc2)C2CSC2)cc1` the T/C (dose: 50.0 mg/kg/injection, schedule: Q04DX002 (ip), vehicle: gum acacia) was 93 % of control, the T/C [4] was 100 % of control and the T/C [5] was 93 % of control.
In the case of `CCc1occ(C(=O)OC)c1C1SCCS1`, the T/C [6] is reported as 92 % of control, the T/C (dose: 200.0 mg/kg/injection, schedule: Q01DX001 (ip), vehicle: saline) is reported as 97 % of control and the T/C (dose: 400.0 mg/kg/injection, schedule: Q01DX001 (ip), vehicle: saline) is reported as 91 % of control.
In the case of `CCN(C(=O)c1cccc(C(=O)N(CC)c2cccc(C)c2)c1)c1cccc(C)c1`, the T/C (dose: 100.0 mg/kg/injection, schedule: Q04DX002 (ip), vehicle: Klucel (hydroxypropylcellulose) (HPC)) is reported as 94 % of control, the T/C (dose: 200.0 mg/kg/injection, schedule: Q04DX002 (ip), vehicle: Klucel (hydroxypropylcellulose) (HPC)) is reported as 91 % of control and the T/C (dose: 400.0 mg/kg/injection, schedule: Q04DX002 (ip), vehicle: Klucel (hydroxypropylcellulose) (HPC)) is reported as 91 % of control.
For `CC(=O)SC1CS(=O)(=O)CC1SC(C)=O` (centres undefined), the T/C [1] was 93 % of control and the T/C [2] was 101 % of control.
In the case of `COc1cc([N+](=O)[O-])ccc1NC(=O)Nc1ccccc1F`, the T/C [7] is reported as 98 % of control, the T/C [8] is reported as 93 % of control and the T/C [9] is reported as 89 % of control.
With `CCCCCCN(CCCCCC)P(=O)(N1CC1C)N1CC1C` (centres undefined) the T/C (dose: 50.0 mg/kg/injection, schedule: Q01DX001 (ip), vehicle: saline) was 104 % of control and the T/C [6] was 101 % of control.
With `CCCN1C(=O)CCC1=O` the T/C (dose: 75.0 mg/kg/injection, schedule: Q04DX003 (ip), vehicle: saline) was 109 % of control, the T/C (dose: 150.0 mg/kg/injection, schedule: Q04DX003 (ip), vehicle: saline) was 97 % of control and the T/C (dose: 300.0 mg/kg/injection, schedule: Q04DX003 (ip), vehicle: saline) was 101 % of control.
`CSc1cccc[n+]1[O-]` was tested, and the T/C (dose: 100.0 mg/kg/injection, schedule: Q01DX009 (ip), vehicle: saline) was 105 % of control, the T/C (dose: 100.0 mg/kg/injection, schedule: Q04DX002 (ip), vehicle: saline) was 103 % of control and 108 % of control and the T/C (dose: 200.0 mg/kg/injection, schedule: Q01DX009 (ip), vehicle: saline) was 108 % of control. For the same compound, the T/C (dose: 200.0 mg/kg/injection, schedule: Q04DX002 (ip), vehicle: saline) was 105 % of control, the T/C (dose: 400.0 mg/kg/injection, schedule: Q01DX009 (ip), vehicle: saline) was 101 % of control and the T/C (dose: 400.0 mg/kg/injection, schedule: Q04DX002 (ip), vehicle: saline) was 108 % of control and 118 % of control.
For `CC(=O)c1cccc(NC(=O)Nc2cccc(O)c2)c1`, the T/C [7] was 101 % of control, the T/C [8] was 97 % of control and the T/C [9] was 101 % of control.
With `O=C(O)C1CC1Oc1ccccc1` (centres undefined) the T/C [10] was 96 % of control, the T/C [11] was 110 % of control and the T/C [12] was 92 % of control. For the same compound, the T/C [13] was 108 % of control, the T/C [14] was 87 % of control and the T/C [15] was 106 % of control.
For `c1ccc2c(c1)-c1ccccc1-2`, the T/C (dose: 50.0 mg/kg/injection, schedule: Q01DX001 (ip), vehicle: carboxymethylcellulose (CMC)) was 97 % of control, the T/C [16] was 97 % of control and the T/C [17] was 97 % of control. For the same compound, the T/C [18] was 103 % of control.
`CNC1(c2ccccc2)CC2CCC(C2)C1=O` (centres undefined) was tested, and the T/C (dose: 25.0 mg/kg/injection, schedule: Q04DX003 (ip), vehicle: saline) was 100 % of control, the T/C (dose: 50.0 mg/kg/injection, schedule: Q04DX003 (ip), vehicle: saline) was 86 % of control and the T/C [6] was 102 % of control.
For `O=C(Nc1ccc(F)c([N+](=O)[O-])c1)N1CCN(c2ccccc2)CC1`, the T/C [7] was 101 % of control, the T/C [8] was 98 % of control and the T/C [9] was 107 % of control.
In the case of `CC1C2c3ccccc3C(c3ccccc32)C1S(=O)(=O)F` (centres undefined), the T/C [7] is reported as 97 % of control, the T/C [8] is reported as 100 % of control and the T/C [9] is reported as 106 % of control.
With `CCOC(=O)C(NC(=O)c1cc2sccc2[nH]1)C(=O)OCC` the T/C (dose: 100.0 mg/kg/injection, schedule: Q01DX001 (ip), vehicle: Klucel (hydroxypropylcellulose) (HPC)) was 96 % of control, the T/C (dose: 200.0 mg/kg/injection, schedule: Q01DX001 (ip), vehicle: Klucel (hydroxypropylcellulose) (HPC)) was 96 % of control and the T/C (dose: 400.0 mg/kg/injection, schedule: Q01DX001 (ip), vehicle: Klucel (hydroxypropylcellulose) (HPC)) was 98 % of control.
In the case of `O=C1NC(=O)N(Cc2ccccc2)C(=O)C1Cc1ccccc1` (centres undefined), the T/C [16] is reported as 97 % of control, the T/C [17] is reported as 95 % of control and the T/C [18] is reported as 103 % of control.
With `CC(=O)N(c1ccccc1)c1nc(/C=N\NC(N)=S)cs1` the T/C [7] was 105 % of control, the T/C [8] was 106 % of control and the T/C [9] was 100 % of control.
In the case of `Cc1c(NC(=O)Nc2ccc(C3=NCCCN3)cc2)cccc1NC(=O)Nc1ccc(C2=NCCCN2)cc1`, the T/C (dose: 4.0 mg/kg/injection, schedule: Q01DX Z (ip), vehicle: water) is reported as 96 % of control, the T/C (dose: 6.0 mg/kg/injection, schedule: Q01DX Z (ip), vehicle: water) is reported as 121 % of control and the T/C (dose: 8.0 mg/kg/injection, schedule: Q01DX Z (ip), vehicle: water) is reported as 109 % of control. The T/C (dose: 25.0 mg/kg/injection, schedule: Q01DX Z (ip), vehicle: water) was 215 % of control, the T/C (dose: 31.0 mg/kg/injection, schedule: Q01DX Z (oral), vehicle: water) was 113 % of control and the T/C (dose: 50.0 mg/kg/injection, schedule: Q01DX Z (ip), vehicle: water) was 162 % of control. The T/C (dose: 100.0 mg/kg/injection, schedule: Q01DX Z (ip), vehicle: water) was 191 % of control and the T/C (dose: 125.0 mg/kg/injection, schedule: Q01DX Z (oral), vehicle: water) was 108 % of control.
With `COc1ccccc1NC(=O)Nc1cccc(C(C)=O)c1` the T/C [10] was 93 % of control, the T/C [11] was 97 % of control and the T/C [12] was 90 % of control. For the same compound, the T/C [13] was 100 % of control, the T/C [14] was 100 % of control and the T/C [15] was 96 % of control.
`COc1ccc(OC)c(-c2cc(-c3ccccc3)nc(-c3cccc([N+](=O)[O-])c3)c2)c1` was tested, and the T/C [4] was 102 % of control, the T/C [5] was 97 % of control and the T/C (dose: 400.0 mg/kg/injection, schedule: Q04DX002 (ip), vehicle: gum acacia) was 91 % of control.
For `O=C(COc1ccc(Cl)cc1Cl)NCCSCc1ccccc1`, the T/C [7] was 91 % of control and the T/C [9] was 89 % of control.
For `Cc1ccc(OCC(=O)Nc2c(Cl)cc(Cl)cc2Cl)c(C)c1`, the T/C [4] was 92 % of control and the T/C [5] was 89 % of control.
For `CNC(=S)N/N=C/c1ccc(OC)c(OC)c1OC`, the T/C [7] was 102 % of control, the T/C [8] was 120 % of control and the T/C [9] was 98 % of control.
With `O=C1C(C(O)c2ccccc2)SC(c2ccccc2)N1c1ccccc1` (centres undefined) the T/C [7] was 97 % of control, the T/C [1] was 90 % of control and the T/C [8] was 101 % of control. The T/C [2] was 94 % of control, the T/C [9] was 95 % of control and the T/C [3] was 93 % of control.
In the case of `O=C1c2ccccc2C(F)(F)c2ccccc21`, the T/C [7] is reported as 110 % of control, the T/C [8] is reported as 100 % of control and the T/C [9] is reported as 101 % of control.
`Cc1ccc(C(=O)C(c2ccccc2)C(Cl)c2ccccc2)cc1` (centres undefined) was tested, and the T/C [7] was 98 % of control, the T/C [1] was 92 % of control and the T/C [8] was 104 % of control. For the same compound, the T/C [2] was 98 % of control, the T/C [9] was 92 % of control and the T/C [3] was 102 % of control.
`N#Cc1ccccc1OCCCCCCCCCCOc1ccccc1C#N` was tested, and the T/C (dose: 75.0 mg/kg/injection, schedule: Q01DX009 (ip), vehicle: Klucel (hydroxypropylcellulose) (HPC)) was 99 % of control, the T/C (dose: 150.0 mg/kg/injection, schedule: Q01DX009 (ip), vehicle: Klucel (hydroxypropylcellulose) (HPC)) was 92 % of control and the T/C (dose: 300.0 mg/kg/injection, schedule: Q01DX009 (ip), vehicle: Klucel (hydroxypropylcellulose) (HPC)) was 90 % of control.

Source: PubChem BioAssay AID248 (DTP/NCI, 2004)
